In US20030232902A1, “Ink composition and ink - jet recording method” (FUJI PHOTO FILM CO., LTD., priority 2002, published 2003):

Key:
[1] = Solubility of auxiliary solvent in water at 25° C.; details: for Solubility of auxiliary solvent in water at 25° C.: in 100 g of water at 25° C.; for Auxiliary solvent Water solubility: Table 1
[2] = Water solubility of high-boiling point organic solvent; format: physicochemical; details: 25° C.
Excerpt: Thus, the water solubility is preferably 4 g or below, more preferably 3 g or below, and still more preferably 2 g or below and most preferably 1 g or below.

[3] = Specific gravity of high-boiling point organic solvent; format: physicochemical

| Compound | Solubility of auxiliary solvent in water at 25° C. [1] [g] | Auxiliary solvent Water solubility [1] [g] | High-boiling point organic solvent Water Solubility [2] [g] | High-boiling point organic solvent Specific Gravity [3] |
| --- | --- | --- | --- | --- |
| 2-ethylene acetate [AS-4] | 20 | – | – | – |
| CCOC(C)=O [AS-1, ethyl acetate] | 8 | 8 | – | – |
| CCCOC(C)=O [AS-2, propyl acetate] | 2 | 2 | – | – |
| CCC(CC)COC(C)=O [AS-3, 2-ethylbutyl acetate] | <1 | – | – | – |
| CCOCCOC(C)=O [AS-5, 2-ethoxyethyl acetate] | 25 | – | – | – |
| CCCCOC(C)=O [AS-6, butyl acetate] | 2 | – | – | – |
| CCOC(=O)CC [AS-7, ethyl propionate] | 2 | – | – | – |
| CCCCOCCOCCOC(C)=O [AS-10, 2-(2-n-butoxyethoxy)ethyl acetate] | 2 | – | – | – |
| O=C1CCCCC1 [AS-11, cyclohexanone] | 15 | – | – | – |
| O=P(OCCCl)(OCCCl)OCCCl [SPX-3, (ClCH2CH2O)3—P═O] | – | – | 4.64 | 1.41 |
| CCCCCOP(=O)(OCCCCC)OCCCCC [SPX-4, [(n)C5H11O]3—P═O] | – | – | 4.5 | 0.94 |
| (ClCH2CHCHO)3—P═O [SPX-2] | – | – | 0.9 | 1.51 |
